Structures are written as SMILES.

One assay concerns the target T1, SGK1 (Homo sapiens, UniProt O00141).
T1 construct: purchased CEREP Panlabs (Eurofins)
T1 sequence (O00141 1-431): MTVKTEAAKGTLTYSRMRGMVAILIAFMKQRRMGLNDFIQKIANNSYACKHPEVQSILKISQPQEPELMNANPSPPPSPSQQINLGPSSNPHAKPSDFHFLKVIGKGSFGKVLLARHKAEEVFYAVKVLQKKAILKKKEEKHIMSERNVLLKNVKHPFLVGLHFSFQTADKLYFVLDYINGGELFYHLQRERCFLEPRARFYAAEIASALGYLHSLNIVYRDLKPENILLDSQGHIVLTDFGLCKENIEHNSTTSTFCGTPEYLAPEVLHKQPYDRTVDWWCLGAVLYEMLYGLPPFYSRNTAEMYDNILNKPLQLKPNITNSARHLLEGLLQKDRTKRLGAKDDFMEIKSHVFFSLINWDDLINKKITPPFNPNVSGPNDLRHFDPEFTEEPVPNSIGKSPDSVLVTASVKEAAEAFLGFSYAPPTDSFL
The experiment in a line: CEREP protein kinase assay. The format is biochemical.

Another assay deals with T2, LIMK1 (Homo sapiens, UniProt P53667).
T2 construct: purchased CEREP Panlabs (Eurofins)
The experiment in a line: CEREP protein kinase assay. The assay is classed as biochemical.

For another assay, the target named is T3, CK1e (Homo sapiens, UniProt P49674).
T3 construct: purchased CEREP Panlabs (Eurofins)
Put plainly: CEREP protein kinase assay. The format is biochemical.

The next assay concerns the target T4, FGR (Homo sapiens, UniProt P09769).
T4 construct: purchased CEREP Panlabs (Eurofins)
Put plainly: CEREP protein kinase assay. The assay is classed as biochemical.

A further assay deals with T5, ROCK2 (Homo sapiens, UniProt O75116).
T5 construct: purchased CEREP Panlabs (Eurofins)
The experiment in a line: CEREP protein kinase assay. The format is biochemical.

The subject of the next assay is cell lines of Table 1. Put plainly: Alamar Blue proliferation assay, average over cell lines. Conditions: Homo sapiens. The format is cell-based. As to the method:
(§1) Cells lines were acquired from cell banks, see supplemental material, grown using the cell banks recommended culture conditions (Supplemental Table 3). In some experiments noted “low folate” the cells were washed and grown in folate free RPMI-1640 media (Gibco #27016-021) supplemented with 5 ml 1 M Hepes, 5 ml 100 mM Na pyruvate, 2.5 mg/ml glucose and 10% defined FBS (Hyclone #SH30070) per 500 mL media for 5–7 days to deplete intracellular folate levels prior to the start of the experiment. Where noted, cells were maintained in complete “high folate” RPMI-1640 media (ATCC #30-2001) with 10% defined FBS to contrast with the low folate conditions.
(§2) Cells were cultured using recommended culture conditions unless noted otherwise (Supplemental Table 3). Cells were plated, dosed with compound and incubated at 37 °C for approximately 2 doubling times as determined for each cell line. Cell Titer Glo (Promega) assay was used to measure proliferation according to manufacturer’s recommendations by measuring luminescence with Flexstation3 (Molecular Devices) with 500 ms integration time. […]
(§3) For a limited number of cell lines, compound dosing was performed under high or low folate conditions with cell viability being determined with Alamar Blue rather than an ATP dependent assay. […] The % inhibition for each sample was calculated and fit as described above.
On the technique in general: Alamar Blue is a resazurin reagent that responds to reducing activity.

Another assay concerns the target T6, DYRK2 (Homo sapiens, UniProt Q92630).
T6 construct: purchased CEREP Panlabs (Eurofins)
T6 sequence (Q92630 1-601): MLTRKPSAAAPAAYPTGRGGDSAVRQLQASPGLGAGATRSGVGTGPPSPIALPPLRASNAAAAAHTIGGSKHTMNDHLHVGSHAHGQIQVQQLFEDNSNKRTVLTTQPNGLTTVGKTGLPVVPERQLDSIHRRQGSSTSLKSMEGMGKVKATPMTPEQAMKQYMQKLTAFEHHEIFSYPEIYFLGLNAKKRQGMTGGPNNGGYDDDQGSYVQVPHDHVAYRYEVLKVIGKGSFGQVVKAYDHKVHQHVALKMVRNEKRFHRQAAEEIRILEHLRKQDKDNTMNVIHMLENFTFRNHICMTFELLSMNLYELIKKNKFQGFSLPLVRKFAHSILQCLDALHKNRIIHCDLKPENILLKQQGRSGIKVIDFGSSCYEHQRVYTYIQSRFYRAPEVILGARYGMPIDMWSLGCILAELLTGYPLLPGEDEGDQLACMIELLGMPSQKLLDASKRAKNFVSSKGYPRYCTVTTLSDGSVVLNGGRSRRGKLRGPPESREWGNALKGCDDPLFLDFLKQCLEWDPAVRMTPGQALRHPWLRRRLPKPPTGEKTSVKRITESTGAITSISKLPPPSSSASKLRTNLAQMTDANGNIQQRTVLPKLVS
The experiment in a line: CEREP protein kinase assay. The assay is classed as biochemical.

A further assay relates to A9 murine cell line. The experiment in a line: In vitro proliferation assay (Alamar Blue). The format is cell-based. Here is the method: as §1, §2, §3

T3 sequence (P49674 whole entry): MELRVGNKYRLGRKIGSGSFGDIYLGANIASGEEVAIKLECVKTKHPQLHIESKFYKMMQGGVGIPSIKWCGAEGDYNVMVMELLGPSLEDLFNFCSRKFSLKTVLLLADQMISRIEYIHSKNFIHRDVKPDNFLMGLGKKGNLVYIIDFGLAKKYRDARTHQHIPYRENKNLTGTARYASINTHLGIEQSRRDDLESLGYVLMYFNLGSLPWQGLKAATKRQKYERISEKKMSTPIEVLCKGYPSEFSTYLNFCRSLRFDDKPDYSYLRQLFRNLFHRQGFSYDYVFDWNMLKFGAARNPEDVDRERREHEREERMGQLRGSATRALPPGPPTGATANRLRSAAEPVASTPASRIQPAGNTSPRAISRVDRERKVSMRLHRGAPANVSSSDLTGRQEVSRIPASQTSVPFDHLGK
T2 sequence (P53667 whole entry): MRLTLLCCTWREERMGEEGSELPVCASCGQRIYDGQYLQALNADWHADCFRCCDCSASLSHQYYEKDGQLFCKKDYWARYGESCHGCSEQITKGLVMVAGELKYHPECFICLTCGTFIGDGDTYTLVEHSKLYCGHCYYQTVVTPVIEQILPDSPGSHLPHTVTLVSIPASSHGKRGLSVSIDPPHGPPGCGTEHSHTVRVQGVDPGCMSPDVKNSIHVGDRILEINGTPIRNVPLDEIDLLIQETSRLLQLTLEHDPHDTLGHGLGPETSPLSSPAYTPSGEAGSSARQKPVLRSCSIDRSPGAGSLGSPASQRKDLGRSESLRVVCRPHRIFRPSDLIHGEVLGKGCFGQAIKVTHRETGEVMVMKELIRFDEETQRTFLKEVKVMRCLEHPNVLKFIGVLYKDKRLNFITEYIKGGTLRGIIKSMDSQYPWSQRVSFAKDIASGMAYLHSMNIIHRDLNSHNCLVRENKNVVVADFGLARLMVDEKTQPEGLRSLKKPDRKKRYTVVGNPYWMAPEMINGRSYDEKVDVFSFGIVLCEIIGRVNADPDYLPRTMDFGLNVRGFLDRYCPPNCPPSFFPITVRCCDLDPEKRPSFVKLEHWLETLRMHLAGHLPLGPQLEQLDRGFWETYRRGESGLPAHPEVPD
T4 sequence (P09769 whole entry): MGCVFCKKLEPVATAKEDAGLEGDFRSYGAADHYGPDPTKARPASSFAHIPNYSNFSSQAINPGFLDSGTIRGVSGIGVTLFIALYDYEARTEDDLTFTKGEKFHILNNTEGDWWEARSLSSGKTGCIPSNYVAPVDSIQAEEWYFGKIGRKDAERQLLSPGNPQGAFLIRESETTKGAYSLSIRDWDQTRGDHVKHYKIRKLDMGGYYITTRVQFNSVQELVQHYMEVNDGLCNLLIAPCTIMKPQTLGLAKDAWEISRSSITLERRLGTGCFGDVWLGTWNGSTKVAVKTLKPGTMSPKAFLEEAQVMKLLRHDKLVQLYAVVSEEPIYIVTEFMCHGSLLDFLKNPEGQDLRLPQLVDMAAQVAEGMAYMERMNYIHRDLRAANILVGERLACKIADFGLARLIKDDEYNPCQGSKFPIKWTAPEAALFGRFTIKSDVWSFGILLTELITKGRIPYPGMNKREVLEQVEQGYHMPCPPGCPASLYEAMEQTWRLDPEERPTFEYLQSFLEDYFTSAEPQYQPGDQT
T5 sequence (O75116 whole entry): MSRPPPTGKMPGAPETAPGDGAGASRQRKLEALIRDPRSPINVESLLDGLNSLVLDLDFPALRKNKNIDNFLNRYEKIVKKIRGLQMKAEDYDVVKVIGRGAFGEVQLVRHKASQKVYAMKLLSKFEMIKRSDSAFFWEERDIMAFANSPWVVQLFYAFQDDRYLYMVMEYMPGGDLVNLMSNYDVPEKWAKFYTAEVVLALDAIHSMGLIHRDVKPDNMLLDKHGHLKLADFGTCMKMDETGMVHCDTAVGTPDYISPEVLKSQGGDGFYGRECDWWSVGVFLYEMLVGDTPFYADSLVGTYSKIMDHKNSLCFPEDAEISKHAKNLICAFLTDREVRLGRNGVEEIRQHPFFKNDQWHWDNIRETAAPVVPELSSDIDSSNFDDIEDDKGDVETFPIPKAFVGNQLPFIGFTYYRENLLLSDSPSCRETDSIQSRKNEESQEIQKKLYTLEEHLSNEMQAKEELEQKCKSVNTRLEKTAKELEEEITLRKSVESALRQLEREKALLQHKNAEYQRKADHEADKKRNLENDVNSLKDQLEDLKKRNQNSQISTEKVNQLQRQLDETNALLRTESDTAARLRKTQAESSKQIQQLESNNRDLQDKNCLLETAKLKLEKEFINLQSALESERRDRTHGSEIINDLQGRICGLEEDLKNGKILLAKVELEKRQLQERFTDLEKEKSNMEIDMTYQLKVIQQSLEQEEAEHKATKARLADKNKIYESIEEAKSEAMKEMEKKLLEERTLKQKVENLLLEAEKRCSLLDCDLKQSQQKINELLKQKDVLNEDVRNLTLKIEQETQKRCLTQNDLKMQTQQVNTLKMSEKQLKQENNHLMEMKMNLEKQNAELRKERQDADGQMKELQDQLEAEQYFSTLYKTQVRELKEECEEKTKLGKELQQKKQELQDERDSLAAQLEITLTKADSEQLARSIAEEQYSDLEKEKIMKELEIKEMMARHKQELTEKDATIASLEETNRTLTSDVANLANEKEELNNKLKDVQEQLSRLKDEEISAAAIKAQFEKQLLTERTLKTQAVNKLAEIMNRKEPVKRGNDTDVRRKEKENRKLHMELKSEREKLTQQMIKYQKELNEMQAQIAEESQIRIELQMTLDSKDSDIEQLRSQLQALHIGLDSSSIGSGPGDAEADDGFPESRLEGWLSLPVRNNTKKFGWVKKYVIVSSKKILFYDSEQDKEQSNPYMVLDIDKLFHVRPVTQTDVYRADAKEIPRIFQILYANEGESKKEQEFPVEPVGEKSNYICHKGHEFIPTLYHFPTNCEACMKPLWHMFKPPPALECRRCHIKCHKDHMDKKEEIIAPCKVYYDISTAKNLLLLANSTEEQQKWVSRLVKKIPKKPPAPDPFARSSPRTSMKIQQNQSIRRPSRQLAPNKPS

For `O=c1[nH]ccc2cc(F)c(NS(=O)(=O)c3ccc(N4CC[C@@H](O)C4)s3)cc12` [LSN3213128, N-(6-Fluoro-1-oxo-1,2-dihydroisoquinolin-7-yl)-5-[(3R)-3-hydroxypyrrolidin-1-yl]thiophene-2-sulfonamide], the inhibition at 0.2 µM on SGK1 (@ 0.2 uM) was -4.06%; at LIMK1 (@ 0.2 uM), -7.18%; against CK1e (@ 0.2 uM) it was -4.69%; at FGR (@ 0.2 uM), -8.47%; at ROCK2 (@ 0.2 uM), -3.09%; against DYRK2 (@ 0.2 uM), -2.01%. Besides, the inhibition at 2 µM against SGK1 (@ 2 uM) is 7.54%; on LIMK1 (@ 2 uM), 5.89%; at CK1e (@ 2 uM), -1.12%; at FGR (@ 2 uM), 3.62%; against ROCK2 (@ 2 uM), 4.72%; against DYRK2 (@ 2 uM) it was -0.829%. The inhibition at 20 µM on SGK1 (@ 20 uM) was found to be 17.3%; against LIMK1 (@ 20 uM), 0.523%; against CK1e (@ 20 uM), 7.65%; against FGR (@ 20 uM), 42.3%; at ROCK2 (@ 20 uM), 5.81%; at DYRK2 (@ 20 uM), 11.7%. Further, the GI50 with cell lines of Table 1 (low folate, 12 cell lines) amounted to 4.4 ± 4.5 nM; in the assay on cell lines of Table 1 (regular RPMI, 11 cell lines), 2400 nM. Half-maximal inhibition in the assay with A9 murine cell line (Mus musculus, RPMI media) (IC50) was put at 230 nM. In the assay with A9 murine cell line (hypoxanthine), the “anti-proliferative effect on hypoxanthine supplementation” value is recorded as “not reversed”.

In general, inhibition refers to the drop in the measured response relative to a control, in per cent. As a reminder, the GI50 is the concentration that inhibits growth by half. What is called IC50 is the concentration that inhibits the measured activity by half.

Values taken from article PMC6193938, “Characterization of a novel AICARFT inhibitor which potently elevates ZMP and has anti-tumor activity in murine models” (Scientific Reports, 2018).
